Among the data in ChEMBL document CHEMBL1126548, “Methoxylation of cocaine reduces binding affinity and produces compounds of differential binding and dopamine uptake inhibitory activity: discovery of a weak cocaine "antagonist"” (J Med Chem, 1993) are Ki and IC50 values, retold here.

The species named for assay [1] is Rattus norvegicus. As to the kind of experiment: Compound tested for inhibitory activity against [3H]dopamine uptake in synaptosomes from rat caudate nucleus. More on the design: species or system Brain.
For assay [2], the species on record is Rattus norvegicus. As to the kind of experiment: Binding affinity against [3H]mazindol.
For assay [3], the species on record is Rattus norvegicus. As to the kind of experiment: Effect on cocaine inhibition of [3H]dopamine uptake at 50 uM.
For assay [4], the species on record is Rattus norvegicus. In words: Effect on cocaine inhibition of [3H]dopamine uptake at 200 uM.
The species entered for assay [5] is Rattus norvegicus. In words: Effect on cocaine inhibition of [3H]-dopamine uptake at 500 uM.
The species named for assay [6] is Rattus norvegicus. In words: Effect on cocaine inhibition of [3H]dopamine uptake.

Each structure is given as a SMILES string.

For orientation: Ki means a measure of affinity in units of concentration, obtained from inhibition or displacement. For the compound `COC(=O)[C@@H]1C2C[C@H](OC)[C@H](C[C@@H]1OC(=O)c1ccccc1)N2C` (mixture of isomers), the Ki in assay [1] is 68 µM; in assay [2] it was 98 µM.

On to `COC(=O)[C@@H]1C2[C@H](OC)C[C@H](C[C@@H]1OC(=O)c1ccccc1)N2C` (mixture of isomers), for which the figures for the Ki in assay [1] and in assay [2] were 6.1 µM and 4.2 µM, respectively.

As a reminder, the IC50 is the concentration that gives 50% inhibition. As for `COC(=O)[C@H]1C2[C@@H](OC)C[C@H](C[C@@H]1OC(=O)c1ccccc1)N2C` (mixture of isomers), the IC50 in assay [3] worked out at 0.501 µM; in assay [4], 0.936 µM. The Ki in assay [1] is 200 µM; in assay [2], 54 µM.

For the compound `COC(=O)[C@H]1C2[C@H](OC)C[C@H](C[C@@H]1OC(=O)c1ccccc1)N2C` (mixture of isomers), the results for the Ki in assay [1] and in assay [2] were 110 µM and 45 µM, respectively.

`COC(=O)[C@H]1C2C[C@H](OC)[C@H](C[C@@H]1OC(=O)c1ccccc1)N2C` (mixture of isomers): the IC50 in assay [5] worked out at 1.02 µM. Moreover, the inhibition constant (Ki) in assay [1] is 510 µM; in assay [2], 190 µM.

As for `COC(=O)[C@H]1[C@@H](OC(=O)c2ccccc2)C[C@@H]2CC[C@H]1N2C` [COCAINE], in assay [6], the 50% inhibitory concentration (IC50) came out at 0.336 µM. Moreover, the values for the Ki in assay [1] and in assay [2] were 0.32 µM and 0.28 µM, respectively.

For the compound `COC(=O)[C@H]1C2CCC(C[C@@H]1OC(=O)c1ccccc1)N2` (stereo partly drawn) [PSEUDOCOCAINE], the Ki in assay [1] was found to be 13.8 µM; in assay [2], 10.4 µM.
